Experiments:
[1] = system: human lung carcinoma A549 cells; experiment: Label-free Epic biosensor DMR assay in A549 cells; type: cell-based; settings: 10 micromolar, ultra-high confluent cells, 2 hrs in low CO2 (~2%) (FIG. 12B)
Method: 169. Cells were typically grown using ˜1 to 2×10^4 cells per well at passage 3 to 15 suspended in 50 μl of the corresponding culture medium in the biosensor microplate, and were cultured at 37° C. under air/5% CO2 for ˜1 day. Except for A431 which was subject to ˜20 hr starvation through continuously culture in the serum-free DMEM, the other cell types were directly assayed without starvation. The confluency for all cells at the time of assays was ˜95% to 100%.
177. Epic® wavelength interrogation system (Corning Inc., Corning, N.Y.) was used for whole cell sensing. This system consists of a temperature-control unit, an optical detection unit, and an on-board liquid handling unit with robotics. The detection unit is centered on integrated fiber optics, and enables kinetic measures of cellular responses with a time interval of ˜15 sec. The compound solutions were introduced by using the on-board liquid handling unit (i.e., pippetting).
190. Although we used A431 cells as a model, the disclosed methods are also applicable to other types.
191. To characterize the polypharmacology including PDE4 inhibitory activity of compounds, we used the known EGFR inhibitor tyrphostin 51 as an example. […] Next, one or more specific DMR parameters were chosen as a readout for plotting the DMR index of the molecule.

[2] = system: quiescent A431 cells (endogenous PDE4 isoforms); experiment: Label-free Epic RWG biosensor DMR assay of PDE inhibitors in synchronized quiescent A431 cells; type: cell-based, human; settings: A431; 10 micromolar; ultra-high confluent cells, 2 hrs in low CO2 (~2%) (FIG. 12A)
Method: Cells were typically grown using ˜1 to 2×10^4 cells per well at passage 3 to 15 suspended in 50 μl of the corresponding culture medium in the biosensor microplate, and were cultured at 37° C. under air/5% CO2 for ˜1 day. Except for A431 which was subject to ˜20 hr starvation through continuously culture in the serum-free DMEM, the other cell types were directly assayed without starvation.
Epic® wavelength interrogation system (Corning Inc., Corning, N.Y.) was used for whole cell sensing. This system consists of a temperature-control unit, an optical detection unit, and an on-board liquid handling unit with robotics. The detection unit is centered on integrated fiber optics, and enables kinetic measures of cellular responses with a time interval of ˜15 sec. The compound solutions were introduced by using the on-board liquid handling unit (i.e., pippetting).
The RWG biosensor is capable of detecting minute changes in local index of refraction near the sensor surface. Since the local index of refraction within a cell is a function of density and its distribution of biomass (e.g., proteins, molecular complexes), the biosensor exploits its evanescent wave to non-invasively detect ligand-induced dynamic mass redistribution in native cells. The evanescent wave extends into the cells and exponentially decays over distance, leading to a characteristic sensing volume of ˜150 nm, implying that any optical response mediated through the receptor activation only represents an average over the portion of the cell that the evanescent wave is sampling. The aggregation of many cellular events downstream the receptor activation determines the kinetics and amplitudes of a ligand-induced DMR.
All studies were carried out at a controlled temperature (28° C.). At least two independent sets of experiments, each with at least three replicates, were performed.
We further examined the DMR signal, if any, of the quiescent A431 cells upon treatment with PDE inhibitors. […] The quiescent A431 cells obtained under the same culture condition were used. Here the initial seeding numbers of cells were relatively low (˜20K cells per well in a 384 well Epic biosensor microplate tissue culture treated). […] After washing with the serum free medium, the cells were continuously cultured in the serum free medium for another 24 hrs to reach a quiescent state. Here the quiescent state was largely achieved through serum withdrawl. […] The cell membrane bound carbonic anahydrase is a known sensor for CO2 level.
In FIG. 4 the quiescent cells were achieved primarily through serum withdrawl. We were interested in the quiescent cells achieved through both contact inhibition and serum withdrawl. To do so, much higher initial seeding numbers of cells (>=25k cells per well for the 384 well Epic biosensor microplate) were used. […] Here both quiescent cells were subject to the same synchronization condition (2 hr incubation in the HBSS assay solution in a low CO2 environment).
Here the quiescent A431 cells were used using 22k cells per well in 384 well Epic biosensor microplates, followed by one day (˜24 hrs) culture in serum medium and 1 day (˜24 hrs) serum free medium, and sequential synchronization in the HBSS buffer solution under a relatively low CO2 environment for 2 hrs. […] For comparison, the DMR signal of cells stimulated with the buffer only (“Vehicle”) were included.

N#CC(C#N)=C(N)/C(C#N)=C/c1cc(O)c(O)c(O)c1 [tyrphostin 51]
primary DMR profile [1]: closely resembled the classic Gs-DMR signals | primary DMR profile [2]: closely resembled the classic Gs-DMR signals
